# BindingDB's records for doi:10.3109/14756366.2013.823957 (National Tsing Hua University, 2014)
# Target: Cathepsin S (Homo sapiens, UniProt P25774)
# Assay: Cathepsin Activity Assay
# Conditions: pH 6.5; 25 °C
# Procedure: A microplate-based screening procedure was used to study the effect of inhibition of re-Cat S, re-Cat L and re-Cat K on several compounds. The assays were performed in quadruplicates at 25 °C in a buffer containing 50 mM MES, pH 6.5, 2.5 mM EDTA and 1 mM DTT for re-Cat S, or 100 mM NaOAc, pH 5.5, 1 mM DTT and 2 mM EDTA for re-Cat L, or 50 mM MES, pH 5.5, 5 mM DTT and 2.5 mM EDTA for re-Cat K. Each of tested compounds at 100 nM was incubated with 50 nM re-Cat S, 31.25 pM re-Cat L or 10 nM re-Cat K at 37 °C for 10 min before initiating the reaction with the addition of 5 μM relevant substrate (Z-Phe-Arg-AMC for Cat L and Cat K, and Z-Val-Val-Arg-AMC for Cat S), respectively [Ward et al., J. Med. Chem., 45:5471-82]. Reactions in microplates were kept at 37 °C for another 30 min and then to collect the fluorescent signals from each well in microplates. E64 and 1% DMSO were applied as positive and solvent control, respectively. Fluorimetric assays were performed at 37 °C on a Perkin Elmer LS55 fluorescence spectrophotometer (Waltham, MA) with excitation at 370 nm and emission at 460 nm wavelengths. The inhibitory ability of a tested compound was determined by decreased fluorescence compared to DMSO control.
# Cathepsin S, sequence (P25774 whole entry): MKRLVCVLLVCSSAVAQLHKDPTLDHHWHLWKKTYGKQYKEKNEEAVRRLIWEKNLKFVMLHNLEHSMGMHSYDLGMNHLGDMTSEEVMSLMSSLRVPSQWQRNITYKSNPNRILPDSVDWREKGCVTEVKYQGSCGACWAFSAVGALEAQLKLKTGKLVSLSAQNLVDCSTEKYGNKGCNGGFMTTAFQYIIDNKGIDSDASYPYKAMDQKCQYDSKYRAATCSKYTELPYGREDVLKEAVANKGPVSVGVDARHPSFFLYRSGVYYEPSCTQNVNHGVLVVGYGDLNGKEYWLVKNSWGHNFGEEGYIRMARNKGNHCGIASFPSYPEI
row,IC50 [nM],SMILES
1,4.4,"CCOC(=O)CNC(=O)C(=O)C(COCc1ccccc1)NC(=O)C(CC1CCCCC1)NC(=O)N1CCOCC1 (stereo not drawn) [Cathepsin S inhibitor alpha-ketoamide, 6a]"
2,2,"CCOC(=O)CNC(=O)C(=O)C(COCc1ccccc1)NC(=O)C(CC1CCCCC1)NC(=O)c1cccc([N+](=O)[O-])c1 (stereo not drawn) [Cathepsin S inhibitor alpha-ketoamide, 6b]"
3,3.1,"CCOC(=O)CNC(=O)C(=O)C(COCc1ccccc1)NC(=O)C(CC1CCCCC1)NC(=O)c1cc(OC)ccc1[N+](=O)[O-] (stereo not drawn) [Cathepsin S inhibitor alpha-ketoamide, 6e]"
4,8.8,"CCOC(=O)CNC(=O)C(=O)C(COCc1ccccc1)NC(=O)C(CC1CCCCC1)NC(=O)c1cccc2c1C(=O)c1ccccc1-2 (stereo not drawn) [Cathepsin S inhibitor alpha-ketoamide, 6r]"
5,5.8,"CCOC(=O)CNC(=O)C(=O)C(COCc1ccccc1)NC(=O)C(CC1CCCCC1)NC(=O)c1ccc(C(=O)OC)c(N)c1 (stereo not drawn) [Cathepsin S inhibitor alpha-ketoamide, 6p]"
6,3.1,"CC(C)(C)CC(C)(C)NC(=O)C(=O)C(COCc1ccccc1)NC(=O)C(CC1CCCCC1)NC(=O)N1CCOCC1 (stereo not drawn) [Cathepsin S inhibitor alpha-ketoamide, 6w]"
7,49.2,"CCOC(=O)CNC(=O)C(=O)C(COCc1ccccc1)NC(=O)C(CC1CCCCC1)NC(=O)c1ccc(C(=O)OC)c(NC(=O)OC(C)(C)C)c1 (stereo not drawn) [Cathepsin S inhibitor alpha-ketoamide, 6n]"
